Reference: PMC8041433 (Environmental Health Perspectives, 2021)
Where “and” joins values, the source holds several entries; their conditions need not be identical. Identical values can stand only once. Like-named read-outs stand apart in the source and are kept apart here.

How the values were obtained:
[1] = target: AChE in SH-SY5Y spheroids (Homo sapiens, UniProt P22303); experiment: cell-based
[2] = target: AChE in SH-SY5Y cells (Homo sapiens, UniProt P22303); experiment: cell-based
[3] = target: AChE in neural stem cell spheroids (Homo sapiens, UniProt P22303); experiment: cell-based; conditions: for IC50: potency (IC50)
AChE in neural stem cell spheroids, sequence (P22303 32-614): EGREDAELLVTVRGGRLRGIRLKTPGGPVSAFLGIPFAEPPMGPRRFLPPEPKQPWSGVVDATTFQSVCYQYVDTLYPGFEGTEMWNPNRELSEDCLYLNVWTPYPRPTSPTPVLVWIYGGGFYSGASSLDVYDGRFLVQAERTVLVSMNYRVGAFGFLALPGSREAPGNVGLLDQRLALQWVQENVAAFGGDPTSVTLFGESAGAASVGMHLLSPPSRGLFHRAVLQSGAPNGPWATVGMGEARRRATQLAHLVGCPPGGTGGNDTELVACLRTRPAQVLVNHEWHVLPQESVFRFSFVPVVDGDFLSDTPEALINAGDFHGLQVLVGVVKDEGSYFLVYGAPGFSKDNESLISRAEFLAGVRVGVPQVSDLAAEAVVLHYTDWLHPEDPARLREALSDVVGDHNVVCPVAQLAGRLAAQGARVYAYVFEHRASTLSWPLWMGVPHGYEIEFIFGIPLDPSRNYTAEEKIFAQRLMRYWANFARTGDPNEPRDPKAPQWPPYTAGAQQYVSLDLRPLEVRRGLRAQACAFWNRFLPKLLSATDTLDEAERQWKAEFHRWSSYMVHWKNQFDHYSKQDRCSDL

[4] = target: AChE in neural stem cells (Homo sapiens, UniProt P22303); experiment: cell-based
AChE in neural stem cells, sequence (P22303 32-614): as above

[5] = target: T1, recombinant human AChE (Homo sapiens, UniProt P22303); experiment: biochemical
T1 sequence (P22303 32-614): as above

[6] = target: T1, recombinant human AChE; experiment: biochemical; remark: listed apart in the source
[7] = target: T1, recombinant human AChE; experiment: biochemical; remark: listed apart in the source
[8] = target: T1, recombinant human AChE; experiment: biochemical; assay type: biochemical; conditions: for AC50: AC50 (uM)
[9] = target: T1, recombinant human AChE
[10] = potency (IC50), SH-SY5Y spheroids (24 h)
[11] = potency (IC50), SH-SY5Y spheroids (48 h)
[12] = potency (IC50), SH-SY5Y cells monolayer
[13] = Neural stem cell spheroid (24 h)
[14] = Neural stem cell spheroid (48 h)
[15] = potency (IC50), Enzyme with microsomes
[16] = read-out: potency (IC50), SH-SY5Y spheroids (48 h)
Wherever IR or R is given: key: Reversible (R); Irreversible (IR); ND, not detected in enzyme-based AChE inhibition assay from current study.

AChE in SH-SY5Y spheroids, sequence (P22303 32-614): as above
AChE in SH-SY5Y cells, sequence (P22303 32-614): as above

| Compound | IC50 [1, 10] [µM] | IC50 [1, 11] [µM] | CC-v2 (curve classes) [2] | IC50 ([2]; IC50 (uM)) | IC50 [2, 12] [µM] | IC50 [3, 13] [µM] | IC50 [3, 14] [µM] | IC50 [4] [µM] | CC-v2 (curve classes) [5] | IC50 ([5]; IC50 (uM)) | IC50 ([5]; potency (IC50), Enzyme) [µM] | IC50 [6, 15] [µM] | IC50 [7] [µM] | AC50 [8] | CC-v2 (curve classes) [9] | Efficacy [9] | Efficacy [5] | IR or R [8] | AC50 ([8]; activity_5) | AC50 ([8]; activity_10) | other results |
| --- | --- | --- | --- | --- | --- | --- | --- | --- | --- | --- | --- | --- | --- | --- | --- | --- | --- | --- | --- | --- | --- |
| Cc1ccc2c(n1)Oc1ccc(C(C)C(=O)OCC(=O)N(C)C)cc1C2 (stereo not shown) [Mepranoprofen arbamel, reference compound] | 7.46 ± 3.5 | 18 ± 2.29 | -2.1 and -1.1 | 15.5 µM and 12.3 µM and 27.5 µM | 19.3 | 12.5 ± 3.49 | 11.3 | 12.7 ± 0.85 | -2.2 and -1.1 | 24.5 µM and 15.5 µM | 15.4 ± 1.77 | 37.3 ± 5.13 | 24.3 | 12.2 µM and 13.7 µM and 19.3 µM (3×) and 7.69 µM and 17.2 µM and 9.68 µM | 4 | 0 |  |  |  |  |  |
| O=C(Nc1cccc(C2=NCCN2)c1)Nc1cccc(C2=NCCN2)c1 [Imidocarb dipropionate, reference compound] | 6.56 ± 6.21 | 7.41 ± 0.48 | -1.1 | 3.79 µM and 4.25 µM | 5.07 ± 0.64 | 19.4 ± 2.22 | 19.3 | 19.3 | -2.1 | 10.7 µM | 18.5 ± 10.1 | 27.6 ± 5.16 | 25.7 ± 5.81 | 15.3 µM (2×) and 17.2 µM and 19.3 µM and 10.9 µM and 13.7 µM and 21.7 µM and 12.2 µM | 4 | 0 | -76.607 | R |  |  |  |
| COP(=O)(OC)SCn1c(=O)oc2cc(Cl)cnc21 [Azamethiphos] | 4.05 ± 2.65 | 3.3 ± 0.59 | -1.1 | 3.56 µM and 3.17 µM | 2.81 ± 0.32 | 1.82 ± 0.76 | 3.08 ± 0.77 | 4.79 ± 0.31 | -1.1 |  | 1.91 ± 0.26 | 6.34 ± 1.18 | 3.81 ± 0.25 | 11.1 µM and 15.7 µM and 14 µM and 39.5 µM and 35.2 µM and 17.7 µM and 7.03 µM and 7.89 µM and 9.93 µM | -2.1 | -92.198 | -98.261 |  |  |  |  |
| CC/N=c1\cc2oc3cc(NCC)c(C)cc3c(-c3ccccc3C(=O)OCC)c-2cc1C [Rhodamine 6G] | 15.8 | 9.25 | -1.1 | 8.94 µM and 6.31 µM and 7.1 µM and 7.07 µM and 7.96 µM and 8.91 µM | 12.4 | 29.7 | 40.3 | 30.5 | -1.1 |  | 22.8 | 41.3 | 41.2 ± 2.79 |  | -2.2 and -2.1 |  |  | R | 39.5 µM and 35.2 µM and 28 µM | 39.5 µM and 49.8 µM and 35.2 µM | AC50 ([8]; activity_60): 25 µM and 35.2 µM |
| CNC(=O)ON=C(C)SC [Methomyl] | 6.41 ± 8.14 | 3.81 ± 0.25 | -1.1 | 1.59 µM and 2 µM | 4.11 ± 0.27 | 6.27 ± 2.23 | 9.75 | 7.99 ± 1.49 | -1.1 |  | 1.83 ± 0.12 | 3.18 ± 0.66 | 3.83 ± 0.53 |  | -1.1 | -96.277 | -92.651 | R |  |  |  |
| COP(=S)(Oc1cc(Cl)c(Br)cc1Cl)c1ccccc1 (stereo not shown) [Leptophos] | 54.6 | 44.6 | -2.1 | 63.3 µM and 71 µM and 79.6 µM | 28 | 36.5 | 69 | 58.1 | -3 |  | 46.4 | 2.31 | 48 ± 3.13 | 31.4 µM and 62.7 µM (3×) and 39.5 µM and 35.2 µM and 55.9 µM | -1.1 | -83.877 | -64.129 |  |  |  |  |
| COc1ccc(C(=O)NCc2ccc(OCCN(C)C)cc2)cc1OC.Cl [Itopride hydrochloride, reference compound] | 4.44 ± 3.53 | 11.2 ± 3.12 | -1.1 and -2.1 | 6.92 µM and 4.9 µM and 5.5 µM | 7.68 | 23.5 ± 3.23 | 14.2 | 11.2 ± 3.11 | -2.2 | 27.5 µM | 12.7 ± 0.85 | 19.4 ± 2.22 | 22.6 ± 1.53 | 15.3 µM (3×) and 21.7 µM and 17.2 µM and 19.3 µM | 4 | 0 | -69.798 | R |  |  |  |
| CNC(=O)O/N=C(\SC)C(=O)N(C)C [Oxamyl] | 2.28 ± 0.63 | 3.05 ± 0.52 | -1.1 | 1.55 µM and 1.42 µM and 1.23 µM | 2.5 ± 0.28 | 0.96 ± 0.38 | 1.85 | 3.39 ± 0.22 | -1.1 |  | 1.74 ± 0.48 | 2.16 ± 0.36 | 2.81 ± 0.32 |  | -1.1 |  |  |  | 3.95 µM and 4.44 µM and 3.52 µM | 2.8 µM and 3.52 µM and 2.5 µM | AC50 ([8]; activity_60): 0.703 µM and 1.57 µM and 1.25 µM |
| Cc1nc(N(C)C)nc(OC(=O)N(C)C)c1C [Pirimicarb] | 7.09 ± 4.92 |  | -1.1 | 11.2 µM | 7.42 ± 2.77 | 1.4 ± 0.16 | 2.47 | 2.84 ± 0.65 | -1.1 |  | 12.7 ± 2.36 | 8.53 ± 0.55 | 8.21 ± 0.56 |  | -2.2 | -73.016 | -85.325 | R | 49.8 µM and 62.7 µM and 22.2 µM | 19.8 µM and 44.4 µM and 49.8 µM | IC50 [1, 16]: 15.2 ± 0.99 µM; AC50 ([8]; activity_60): 19.8 µM and 5.59 µM and 9.93 µM |
| CCOP(=S)(OCC)OC(Cl)C(Cl)(Cl)Cl (stereo not shown) [Chlorethoxyfos] | 33.2 |  | -2.1 | 35.6 µM | 28.3 | 42.8 | 47 | 46.2 | -2.1 | 79.6 µM | 60.4 | 5.86 | 65.2 ± 4.42 | 1.57 µM | -1.1 | -100.975 | -89.198 |  |  |  | IC50 [1, 16]: 37.3 µM; IC50 ([2]; read-out: IC50): 31.7 µM; IC50 ([6]; IC50 (uM)): 28.3 µM |
| CCN1CCC2(CC1)COc1cc3c(cc12)N(C(=O)c1ccc(-c2ccc(-c4nnc(C)o4)cc2C)cc1)CC3.Cl [SB236057A] | 27.8 ± 11.7 | 25.9 ± 2.98 | -2.1 | 29.3 µM and 23.2 µM | 33.8 ± 2.29 |  | 4.03 | 42.6 ± 2.88 | -2.1 | 32.8 µM | 38.3 ± 6.89 | 66 ± 15.1 | 67.8 ± 8.64 |  | 4 | 0 | -86.107 | R | 72.8 µM and 64.9 µM and 45.9 µM | 51.5 µM and 91.6 µM | potency (IC50), Neural stem cell spheroid (24 h) [3]: Inactive; AC50 ([8]; activity_60): 64.9 µM and 51.5 µM and 72.8 µM |
| CCOP(=S)(OCC)SCn1nnc2ccccc2c1=O [Azinphos-ethyl] | 25.2 | 12 | -1.1 | 12.6 µM and 11.2 µM and 15.9 µM | 10.9 | 2.23 | 4.36 | 4.79 | -2.1 |  | 42.8 | 2.14 | 22.5 ± 4.21 | 49.8 µM (2×) and 55.9 µM (2×) and 70.3 µM and 39.5 µM and 44.4 µM | -1.1 | -98.316 | -105.247 |  |  |  |  |
| CCOP(=S)(OCC)SCn1c(=O)oc2cc(Cl)ccc21 [Phosalone] | 66.3 | 50 | -2.2 | 56.4 µM and 48.1 µM and 35.6 µM and 76.2 µM |  | 9.61 | 10.5 | 17.1 | 4 |  |  | 2.91 |  |  | -1.1 |  |  |  | 55.9 µM and 35.2 µM | 55.9 µM and 62.7 µM and 49.8 µM | potency (IC50), SH-SY5Y cells monolayer [2]: Inactive; AChE inhibition (result in words) [5]: did not show effects; potency (IC50), Enzyme [5]: Inactive; IC50 ([6]; IC50 (uM)): 3.99 µM and 8.55 µM; potency (IC50), Enzyme-based assay with heat-inactivated microsomes [7]: Inactive; AC50 ([8]; activity_60): 62.7 µM and 55.9 µM |
| CCOP(=S)(OCC)SCSP(=S)(OCC)OCC [Ethion] | 31.9 ± 21.6 | 42.8 ± 2.79 | -2.1 | 39.9 µM and 35.6 µM and 31.7 µM | 17 ± 1.1 | 0.09 ± 0.02 | 0.48 ± 0.46 | 7.03 ± 3.56 | -2.1 |  | 7.92 ± 0.91 | 11.1 | 58.7 ± 10.6 | 49.8 µM (3×) and 55.9 µM (3×) and 88.5 µM and 62.7 µM | -1.1 | -94.606 | -121.235 |  |  |  |  |
| CCN(CC)CCOc1ccc2c(c1)C(=O)c1cc(OCCN(CC)CC)ccc1-2 [Tilorone, reference compound] | 1.34 | 1.42 | -1.1 | 0.977 µM and 1.1 µM and 0.776 µM | 1.77 | 19.6 | 25.7 | 5.88 | -1.1 |  | 4.18 | 5.46 | 5.52 ± 1.16 | 6.85 µM (2×) and 6.11 µM (2×) and 4.85 µM and 7.69 µM and 9.68 µM | -1.1 | -84.739 | -92.014 | R |  |  | reversibility of AChE inhibition (result in words) [8]: reversible |
